Assay results taken from patent US7118895B2, “Process for producing aglycon by using diglycosidase and flavor-improved food containing the aglycon and converting agent to be used in the process” (Amano Enzyme Inc., priority 2000, dated 2006).

System: Crude diglycosidase
Experiment: Examination of temperature in the conversion into isoflavone aglycons by diglycosidase using soybean materials
Type: biochemical, Penicillium multicolor IAM7153
Design: Decomposition efficiency of glycitin family in roasted soy flour / Decomposition efficiency of daidzin family in roasted soy flour / Decomposition efficiency of genistin family in soymilk / Decomposition efficiency of daidzin family in soymilk / Decomposition efficiency of glycitin family in defatted soybean / Decomposition efficiency of daidzin family in defatted soybean: concentration or dose not given beside the values
Procedure, shortened: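 Soybean materials (50 mg) suspended in 20 mM acetate buffer pH 4.0 reacted with crude diglycosidase diluted to 1.88 AU/mL at 80, 65, 55, 45, 37 or 30° C. Reactions stopped with ethanol at 0, 1, 3 and 6 h; isoflavone glycosides and aglycons in supernatant detected by HPLC.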

[1] = 30° C., heat treatment of enzyme no, reaction time 0 h
[2] = 30° C., heat treatment of enzyme no, reaction time 1 h
[3] = 30° C., heat treatment of enzyme no, reaction time 3 h
[4] = 30° C., heat treatment of enzyme no, reaction time 6 h
[5] = 30° C., heat treatment of enzyme yes, reaction time 6 h
[6] = 45° C., heat treatment of enzyme no, reaction time 0 h
[7] = 45° C., heat treatment of enzyme no, reaction time 1 h
[8] = 45° C., heat treatment of enzyme no, reaction time 3 h
[9] = 45° C., heat treatment of enzyme no, reaction time 6 h
[10] = 45° C., heat treatment of enzyme yes, reaction time 6 h
[11] = 45 °C, heat treatment of enzyme: no, 0 h
[12] = 45 °C, heat treatment of enzyme: no, 1 h
[13] = 45 °C, heat treatment of enzyme: no, 3 h
[14] = 45 °C, heat treatment of enzyme: no, 6 h
[15] = 45 °C, heat treatment of enzyme: yes, 6 h
[16] = 55° C., heat treatment of enzyme no, reaction time 0 h
[17] = 55° C., heat treatment of enzyme no, reaction time 1 h
[18] = 55° C., heat treatment of enzyme no, reaction time 3 h
[19] = 55° C., heat treatment of enzyme no, reaction time 6 h
[20] = 55° C., heat treatment of enzyme yes, reaction time 6 h
[21] = 55 °C, heat treatment of enzyme: no, 0 h
[22] = 55 °C, heat treatment of enzyme: no, 1 h
[23] = 55 °C, heat treatment of enzyme: no, 3 h
[24] = 55 °C, heat treatment of enzyme: no, 6 h
[25] = 55 °C, heat treatment of enzyme: yes, 6 h
[26] = 65° C., heat treatment of enzyme no, reaction time 0 h
[27] = 65° C., heat treatment of enzyme no, reaction time 1 h
[28] = 65° C., heat treatment of enzyme no, reaction time 3 h
[29] = 65° C., heat treatment of enzyme no, reaction time 6 h
[30] = 65° C., heat treatment of enzyme yes, reaction time 6 h
[31] = 65 °C, heat treatment of enzyme: no, 0 h
[32] = 65 °C, heat treatment of enzyme: no, 1 h
[33] = 65 °C, heat treatment of enzyme: no, 3 h
[34] = 65 °C, heat treatment of enzyme: no, 6 h
[35] = 65 °C, heat treatment of enzyme: yes, 6 h
[36] = 80° C., heat treatment of enzyme no, reaction time 0 h
[37] = 80° C., heat treatment of enzyme no, reaction time 1 h
[38] = 80° C., heat treatment of enzyme no, reaction time 3 h
[39] = 80° C., heat treatment of enzyme no, reaction time 6 h
[40] = 80° C., heat treatment of enzyme yes, reaction time 6 h
[41] = 80 °C, heat treatment of enzyme: no, 0 h
[42] = 80 °C, heat treatment of enzyme: no, 1 h
[43] = 80 °C, heat treatment of enzyme: no, 3 h
[44] = 80 °C, heat treatment of enzyme: no, 6 h
[45] = 80 °C, heat treatment of enzyme: yes, 6 h

O=C(O)CC(=O)OC[C@H]1O[C@@H](Oc2ccc3c(=O)c(-c4ccc(O)cc4)coc3c2)[C@H](O)[C@@H](O)[C@@H]1O [malonyldaidzin, 6″-O-malonyldaidzin]
Decomposition efficiency of daidzin family in concentrated soybean protein [1]: not detected
Decomposition efficiency of daidzin family in defatted soybean [1]: 43.3%
Decomposition efficiency of daidzin family in concentrated soybean protein [2]: not detected
Decomposition efficiency of daidzin family in defatted soybean [2]: 46.6%
Decomposition efficiency of daidzin family in concentrated soybean protein [3]: not detected
Decomposition efficiency of daidzin family in defatted soybean [3]: 45.2%
Decomposition efficiency of daidzin family in concentrated soybean protein [4]: not detected
Decomposition efficiency of daidzin family in defatted soybean [4]: 45.1%
Decomposition efficiency of daidzin family in concentrated soybean protein [5]: not detected
Decomposition efficiency of daidzin family in defatted soybean [5]: 45.4%
Decomposition efficiency of daidzin family in soymilk (30 °C, heat treatment of enzyme: no, 0 h): 56.8%
Decomposition efficiency of daidzin family in soymilk (30 °C, heat treatment of enzyme: no, 1 h): 58.2%
Decomposition efficiency of daidzin family in soymilk (30 °C, heat treatment of enzyme: no, 3 h): 52.8%
Decomposition efficiency of daidzin family in soymilk (30 °C, heat treatment of enzyme: no, 6 h): 46.2%
Decomposition efficiency of daidzin family in soymilk (30 °C, heat treatment of enzyme: yes, 6 h): 56.1%
Decomposition efficiency of daidzin family in roasted soy flour (35 °C, heat treatment of enzyme: no, 0 h): not detected
Decomposition efficiency of daidzin family in roasted soy flour (35 °C, heat treatment of enzyme: no, 1 h): not detected
Decomposition efficiency of daidzin family in roasted soy flour (35 °C, heat treatment of enzyme: no, 3 h): not detected
Decomposition efficiency of daidzin family in roasted soy flour (35 °C, heat treatment of enzyme: no, 6 h): not detected
Decomposition efficiency of daidzin family in roasted soy flour (35 °C, heat treatment of enzyme: yes, 6 h): not detected
Decomposition efficiency of daidzin family in concentrated soybean protein [6]: not detected
Decomposition efficiency of daidzin family in defatted soybean [6]: 43.3%
Decomposition efficiency of daidzin family in concentrated soybean protein [7]: not detected
Decomposition efficiency of daidzin family in defatted soybean [7]: 45.5%
Decomposition efficiency of daidzin family in concentrated soybean protein [8]: not detected
Decomposition efficiency of daidzin family in defatted soybean [8]: 43.7%
Decomposition efficiency of daidzin family in concentrated soybean protein [9]: not detected
Decomposition efficiency of daidzin family in defatted soybean [9]: 41.7%
Decomposition efficiency of daidzin family in concentrated soybean protein [10]: not detected
Decomposition efficiency of daidzin family in defatted soybean [10]: 44.3%
Decomposition efficiency of daidzin family in roasted soy flour [11]: not detected
Decomposition efficiency of daidzin family in soymilk [11]: 57.2%
Decomposition efficiency of daidzin family in roasted soy flour [12]: not detected
Decomposition efficiency of daidzin family in soymilk [12]: 50.2%
Decomposition efficiency of daidzin family in roasted soy flour [13]: not detected
Decomposition efficiency of daidzin family in soymilk [13]: 41.1%
Decomposition efficiency of daidzin family in roasted soy flour [14]: not detected
Decomposition efficiency of daidzin family in soymilk [14]: 30.2%
Decomposition efficiency of daidzin family in roasted soy flour [15]: not detected
Decomposition efficiency of daidzin family in soymilk [15]: 55.8%
Decomposition efficiency of daidzin family in concentrated soybean protein [16]: not detected
Decomposition efficiency of daidzin family in defatted soybean [16]: 43.3%
Decomposition efficiency of daidzin family in concentrated soybean protein [17]: not detected
Decomposition efficiency of daidzin family in defatted soybean [17]: 45.0%
Decomposition efficiency of daidzin family in concentrated soybean protein [18]: not detected
Decomposition efficiency of daidzin family in defatted soybean [18]: 42.7%
Decomposition efficiency of daidzin family in concentrated soybean protein [19]: not detected
Decomposition efficiency of daidzin family in defatted soybean [19]: 40.3%
Decomposition efficiency of daidzin family in concentrated soybean protein [20]: not detected
Decomposition efficiency of daidzin family in defatted soybean [20]: 44.1%
Decomposition efficiency of daidzin family in roasted soy flour [21]: not detected
Decomposition efficiency of daidzin family in soymilk [21]: 57.3%
Decomposition efficiency of daidzin family in roasted soy flour [22]: not detected
Decomposition efficiency of daidzin family in soymilk [22]: 50.9%
Decomposition efficiency of daidzin family in roasted soy flour [23]: not detected
Decomposition efficiency of daidzin family in soymilk [23]: 41.1%
Decomposition efficiency of daidzin family in roasted soy flour [24]: not detected
Decomposition efficiency of daidzin family in soymilk [24]: 31.1%
Decomposition efficiency of daidzin family in roasted soy flour [25]: not detected
Decomposition efficiency of daidzin family in soymilk [25]: 50.8%
Decomposition efficiency of daidzin family in concentrated soybean protein [26]: not detected
Decomposition efficiency of daidzin family in defatted soybean [26]: 43.3%
Decomposition efficiency of daidzin family in concentrated soybean protein [27]: not detected
Decomposition efficiency of daidzin family in defatted soybean [27]: 44.7%
Decomposition efficiency of daidzin family in concentrated soybean protein [28]: not detected
Decomposition efficiency of daidzin family in defatted soybean [28]: 41.6%
Decomposition efficiency of daidzin family in concentrated soybean protein [29]: not detected
Decomposition efficiency of daidzin family in defatted soybean [29]: 37.3%
Decomposition efficiency of daidzin family in concentrated soybean protein [30]: not detected
Decomposition efficiency of daidzin family in defatted soybean [30]: 35.2%
Decomposition efficiency of daidzin family in roasted soy flour [31]: not detected
Decomposition efficiency of daidzin family in soymilk [31]: 56.8%
Decomposition efficiency of daidzin family in roasted soy flour [32]: not detected
Decomposition efficiency of daidzin family in soymilk [32]: 51.7%
Decomposition efficiency of daidzin family in roasted soy flour [33]: not detected
Decomposition efficiency of daidzin family in soymilk [33]: 43.9%
Decomposition efficiency of daidzin family in roasted soy flour [34]: not detected
Decomposition efficiency of daidzin family in soymilk [34]: 35.3%
Decomposition efficiency of daidzin family in roasted soy flour [35]: not detected
Decomposition efficiency of daidzin family in soymilk [35]: 42.4%
Decomposition efficiency of daidzin family in concentrated soybean protein [36]: not detected
Decomposition efficiency of daidzin family in defatted soybean [36]: 43.3%
Decomposition efficiency of daidzin family in concentrated soybean protein [37]: not detected
Decomposition efficiency of daidzin family in defatted soybean [37]: 39.8%
Decomposition efficiency of daidzin family in concentrated soybean protein [38]: not detected
Decomposition efficiency of daidzin family in defatted soybean [38]: 28.8%
Decomposition efficiency of daidzin family in concentrated soybean protein [39]: not detected
Decomposition efficiency of daidzin family in defatted soybean [39]: 17.8%
Decomposition efficiency of daidzin family in concentrated soybean protein [40]: not detected
Decomposition efficiency of daidzin family in defatted soybean [40]: 17.4%
Decomposition efficiency of daidzin family in roasted soy flour [41]: not detected
Decomposition efficiency of daidzin family in soymilk [41]: 57.2%
Decomposition efficiency of daidzin family in roasted soy flour [42]: not detected
Decomposition efficiency of daidzin family in soymilk [42]: 50.8%
Decomposition efficiency of daidzin family in roasted soy flour [43]: not detected
Decomposition efficiency of daidzin family in soymilk [43]: 36.4%
Decomposition efficiency of daidzin family in roasted soy flour [44]: not detected
Decomposition efficiency of daidzin family in soymilk [44]: 23.0%
Decomposition efficiency of daidzin family in roasted soy flour [45]: not detected
Decomposition efficiency of daidzin family in soymilk [45]: 21.8%
